The values below come from ChEMBL document CHEMBL1857833, “Screening and optimization of specific chemical series against human African Trypanosomiasis (HAT)”.

Data set [1] concerns Trypanosoma brucei. Description: DNDI: Inhibition of Human African Trypanosomiasis, SBRI 427, in vitro. The format is functional, organism-based.
Data set [2] is described as follows: DNDI: Solubility in phosphate buffered saline at pH7.4 measured by nephelometry at room temperature (NEPH-RT). The format is physicochemical. The note with it: pH 7.4.
Data set [3] is described as follows: DNDI: Lipophilicity measured in Chromatographic hydrophobicity index (CHI) assay, pH 7.4. The format is physicochemical. The note with it: buffer.
Data set [4] can be described thus: DNDI: Cytotoxicity against L929 mouse fibroblasts, 72 hour. The format is toxicity, cell-based. To be noted: mouse, L929 mouse fibroblasts.
The conditions of data set [5]: mouse, microsomes, 1 µM.
Description: DNDI: in vitro intrinsic clearance in mouse liver microsomes at a concentration of 1uM
A short description of another data set: in vitro. To be noted: mouse, liver microsomes, t (1 / 2).
Data set [6] deals with Trypanosoma brucei. Description: DNDI: Inhibition of Human African Trypanosomiasis, Cross 22, in vitro. The format is functional, organism-based.
Data set [7] can be described thus: DNDI: Cytotoxicity against L929 mouse fibroblasts, CYTO-SP, 24 hour. To be noted: mouse, L929 mouse fibroblasts. The format is toxicity, cell-based.
[8] abbreviates: Trypanosoma brucei, SBRI 427, read-out: IC50.

Converted amounts (≈) assume the structure as drawn. “And” between values parts separate entries of the source, which are not always exact repeats. Equal entries are not always repeated. Some results are limits rather than exact numbers.

Description for in vitro: DNDI: half life in mouse liver microsomes at a concentration of 1uM

Broadly, the IC50 is the concentration that gives 50% inhibition. For orientation: solubility (kinetic) means solubility judged after dilution from a stock solution rather than from solid. The chromatographic logD is lipophilicity estimated from chromatographic retention. As for `CN1CC(OC(=O)c2ccccc2)=CC1=O`, in the data set with Trypanosoma brucei [1] (setting [8]), the IC50 is over 5 µg/mL. In data set [2], the kinetic solubility is over 200 µM. The molecule also registered a chromatographic logD in data set [3] of 2.34. In data set [4], this molecule yielded an IC50 at 72 h of over 10 µg/mL.
What is called half-life is the time in which the quantity being followed falls by half. A lower half-life goes with rapid decline. On to `CCCCCC(C)NCc1coc(-c2ccc(OC3CCCCC3)cc2)n1` (stereo not given), for which the IC50 with Trypanosoma brucei [1] (setting [8]) is 0.39 µg/mL (≈ 1.05 µM). Also, in data set [5], the CLint in vitro came to 13 µL/min/mg. In addition, in “in vitro”, the half-life at 1 µM was 1.08 h. In data set [2], this molecule returned a kinetic solubility of 3 µM (≈ 1.11 µg/mL). For the same molecule, the chromatographic logD in data set [3] came out at 4.28. Moreover, 1.48 µg/mL (≈ 3.99 µM) corresponded to half-maximal inhibition in data set [4] (IC50 at 72 h).
For `Clc1ccc(-c2nc(CNC3[C@H]4C[C@@H]5C[C@@H](C[C@H]3C5)C4)co2)cc1` (stereo not given in full), the IC50 in the data set with Trypanosoma brucei [1] is 2.01 µg/mL and 2.82 µg/mL; in the data set on Trypanosoma brucei [1] (setting [8]), 1.8 µg/mL (≈ 5.25 µM); in the data set on Trypanosoma brucei [6], 2.29 µg/mL (≈ 6.68 µM). Further, the IC50 at 24 h in data set [7] is over 50 µg/mL. The molecule further gave an IC50 at 72 h in data set [4] of 6.73 µg/mL (≈ 19.6 µM).
In the case of `CCCCOc1ccc(-c2nc(CNCCC3CCCN3C)co2)cc1` (stereo not given), the IC50 in the data set with Trypanosoma brucei [1] (setting [8]) turned out to be 0.31 µg/mL (≈ 0.867 µM). In data set [5], this molecule returned a CLint in vitro of 12 µL/min/mg. In the data set “in vitro”, this molecule showed a half-life at 1 µM of 1.22 h. Moreover, the kinetic solubility in data set [2] is 2 µM (≈ 0.715 µg/mL). In data set [3], this molecule had a chromatographic logD of 4.64. In addition, the IC50 at 72 h in data set [4] was 2.9 µg/mL (≈ 8.11 µM).
With `COc1ccc(/C(=N\O)Nc2ccccc2)cc1`, the IC50 in the data set with Trypanosoma brucei [1] (setting [8]) is 2.72 µg/mL (≈ 11.2 µM). The same molecule came in with a CLint in vitro in data set [5] of 121 µL/min/mg. In addition, the IC50 at 24 h in data set [7] is over 50 µg/mL. This molecule also returned a half-life at 1 µM in “in vitro” of 0.117 h. This molecule had a solubility (kinetic) in data set [2] of over 200 µM. In data set [3], this molecule registered a chromatographic logD of 3.1.
On to `Cc1ccc(CNC(c2nc(-c3ccccc3)c(N3CCCCC3)o2)C2CC2)cc1` (stereo not given), for which the IC50 with Trypanosoma brucei [1] (setting [8]) amounted to 4.56 µg/mL (≈ 11.4 µM). Further, the solubility (kinetic) in data set [2] amounted to 3 µM (≈ 1.2 µg/mL). In data set [3], this molecule had a chromatographic logD of over 5.2. Besides, the IC50 at 72 h in data set [4] is over 10 µg/mL.
Consider `C[C@@H]1[C@H]2C[C@@H](C[C@H]1NCc1coc(-c3ccc(Br)cc3)n1)C2(C)C`, for which the IC50 in the data set with Trypanosoma brucei [1] was 0.42 µg/mL and 0.92 µg/mL and 0.85 µg/mL; in the data set with Trypanosoma brucei [6], 0.82 µg/mL (≈ 2.11 µM). For the same molecule, the IC50 at 24 h in data set [7] is over 50 µg/mL. The same molecule came in with an IC50 at 72 h in data set [4] of under 3.13 µg/mL.
On to `CCN(CC)CCCNc1cc(-c2ccccc2)nc2cc(-c3ccc(F)cc3)nn12`, for which the IC50 in the data set with Trypanosoma brucei [1] (setting [8]) was 2.46 µg/mL (≈ 5.89 µM). Moreover, the kinetic solubility in data set [2] was 25 µM (≈ 10.4 µg/mL). This molecule also yielded a chromatographic logD in data set [3] of 4.84. Also, in data set [4], the IC50 at 72 h is 3.05 µg/mL (≈ 7.3 µM).
The matching figures for `COc1ccc(C(=O)OC2=CC(=O)N(C)C2)cc1`: over 5 µg/mL, over 200 µM, 2.72 and over 10 µg/mL.
In the case of `CCCCCOc1ccc(-c2nc(CNCCC3CCCN3C)co2)cc1` (stereo not given), the IC50 in the data set on Trypanosoma brucei [1] (setting [8]) worked out at 0.14 µg/mL (≈ 0.377 µM). In data set [5], this molecule yielded a CLint in vitro of 11 µL/min/mg. The molecule further had a half-life at 1 µM in “in vitro” of 1.27 h. Also, the kinetic solubility in data set [2] is under 1 µM. The chromatographic logD in data set [3] stood at 5.2. The molecule also came in with an IC50 at 72 h in data set [4] of 1.21 µg/mL (≈ 3.26 µM).
As for `C[C@H]1C(NCc2coc(-c3ccc(Cl)cc3)n2)C[C@@H]2C[C@H]1C2(C)C` (stereo not given in full), the IC50 in the data set with Trypanosoma brucei [1] was 0.71 µg/mL and 0.8 µg/mL; with Trypanosoma brucei [1] (setting [8]), 1.06 µg/mL (≈ 3.07 µM); in the data set with Trypanosoma brucei [6], 0.9 µg/mL (≈ 2.61 µM). For the same molecule, the IC50 at 24 h in data set [7] was over 50 µg/mL. Besides, the IC50 at 72 h in data set [4] is under 3.13 µg/mL.
In the case of `O/N=C(\NC1CCCCC1)C1CCCCC1`, the IC50 with Trypanosoma brucei [1] (setting [8]) was over 5 µg/mL. The IC50 at 24 h in data set [7] is over 50 µg/mL. The kinetic solubility in data set [2] is over 200 µM. Further, the chromatographic logD in data set [3] stood at 4.41.
Regarding `Cc1cccc(-c2nc(CNCCC3CCCN3C)c(C)o2)c1` (stereo not given), the IC50 in the data set with Trypanosoma brucei [1] (setting [8]) is 0.55 µg/mL (≈ 1.75 µM). Also, the kinetic solubility in data set [2] is over 200 µM. Besides, in data set [3], the chromatographic logD came to 3.3. This molecule also registered an IC50 at 72 h in data set [4] of 9.29 µg/mL (≈ 29.6 µM).
Regarding `Brc1ccc(-c2nc(CNC3[C@H]4C[C@@H]5C[C@@H](C[C@H]3C5)C4)co2)cc1` (stereo not given in full), the IC50 is 1.2 µg/mL and 3.02 µg/mL and 2.81 µg/mL in the data set on Trypanosoma brucei [1]; 2.26 µg/mL (≈ 5.83 µM) in the data set with Trypanosoma brucei [6]. Also, in data set [7], the IC50 at 24 h was over 50 µg/mL. In data set [4], the IC50 at 72 h came to 8.08 µg/mL (≈ 20.9 µM).
Regarding `N=C(NC1CCCCC1)c1ccccc1-c1ccccc1`, the IC50 with Trypanosoma brucei [1] (setting [8]) was over 5 µg/mL. Further, in data set [7], the IC50 at 24 h was over 50 µg/mL. The kinetic solubility in data set [2] was over 200 µM. The same molecule displayed a chromatographic logD in data set [3] of 2.87.
On to `CC1CC(NCc2coc(-c3ccc(Br)cc3)n2)CC(C)(C)C1` (stereo not given), for which the IC50 in the data set with Trypanosoma brucei [1] was 0.54 µg/mL and 0.97 µg/mL and 1.17 µg/mL; in the data set with Trypanosoma brucei [6], 0.87 µg/mL (≈ 2.31 µM). The same molecule returned an IC50 at 24 h in data set [7] of over 50 µg/mL. In data set [4], this molecule returned an IC50 at 72 h of under 3.13 µg/mL.
Consider `COc1ccc(CNC(CC(C)C)c2nc(Cc3ccccc3)c(N3CCOCC3)o2)cc1` (stereo not given), for which the IC50 with Trypanosoma brucei [1] (setting [8]) came to 2.23 µg/mL (≈ 4.96 µM). Besides, in data set [5], the CLint in vitro amounted to 463 µL/min/mg. Further, the half-life at 1 µM in the data set “in vitro” came out at 0.0333 h. The kinetic solubility in data set [2] was found to be 25 µM (≈ 11.2 µg/mL). Besides, the chromatographic logD in data set [3] is over 5.2. In data set [4], this molecule displayed an IC50 at 72 h of over 10 µg/mL.
